For this series, the system named is GENE-TOX genotoxicity assays, various organisms and cells. In words: GENE-TOX mutagenicity studies.
[1] abbreviates: Species/Cell Type: Salmonella typhimurium (one or more of the five standard strains: TA98, TA100, TA1535, TA1537, and TA1538), Assay Type: Histidine reverse gene mutation, Ames assay, Assay Code: SALT, Evaluation Type: Evaluation A (Pre-1980).
[2] abbreviates: Species/Cell Type: Neurospora crassa, Assay Type: Aneuploidy, chromosome aberrations, Assay Code: NEN-, Evaluation Type: Evaluation A (Pre-1980).
Setting [3] is: Species/Cell Type: Salmonella typhimurium (one or more of the five standard strains: TA98, TA100, TA1535, TA1537, and TA1538), Assay Type: Histidine reverse gene mutation, Ames assay, Assay Code: SAL+*, Activation: With metabolic activation, Evaluation Type: Evaluation A (Pre-1980).
The mark [4] stands for this setting: Species/Cell Type: Nonhuman, Assay Type: Sister-chromatid exchange (SCE) in vitro, Assay Code: SC2T, Evaluation Type: Evaluation B (Post-1980).

Calls of active or inactive are those of the source. The rule behind the calls is not given here.

Turning to `COc1cc2c[n+](C)c3c4cc(OC)c(OC)cc4ccc3c2cc1OC`, under setting [1], the mutagenic call is reported as “no conclusion”.
With `Nc1ccccc1N`, the mutagenic call is “active; positive” (Species/Cell Type: Allium cepa, Assay Type: Chromosome aberrations, Assay Code: ALC+, Evaluation Type: Evaluation A (Pre-1980)); “active; positive” (Species/Cell Type: Mammalian polychromatic erythrocytes, Assay Type: Micronucleus test, chromosome aberrations, Assay Code: MNT+, Evaluation Type: Evaluation B (Post-1980)); “inactive; negative” under setting [2]; “inactive; negative” (Species/Cell Type: Rodents, Sex: Male, Assay Type: Dominant lethal test, Assay Code: DLT-, Evaluation Type: Evaluation A (Pre-1980)).
Regarding `CCOC(=O)NC(=S)Nc1ccccc1NC(=S)NC(=O)OCC`, the mutagenic call is “active; positive” (Species/Cell Type: Aspergillus nidulans, Assay Type: Aneuploidy, chromosome aberrations, Assay Code: ASN+, Evaluation Type: Evaluation A (Pre-1980)) and “no conclusion” (Species/Cell Type: Aspergillus nidulans, Assay Type: Mitotic recombination, Assay Code: ASGT, Evaluation Type: Evaluation A (Pre-1980)).
Consider `CCCCc1cc2c(c3ccc4ccccc4c13)CCC2=O`, for which, under setting [1], the mutagenic call is recorded as “no conclusion”.
In the case of `Cc1cc2nc3ccc(N(C)C)cc3nc2cc1N`, the mutagenic call reads like this: (Species/Cell Type: Drosophila melanogaster, Assay Type: Sex-linked recessive lethal gene mutation, Assay Code: SRLT, Evaluation Type: Evaluation A (Pre-1980)) “no conclusion”; (Species/Cell Type: Escherichia coli polA (W3119 vs P3478), Assay Type: Rec-assay, DNA effects (bacterial DNA repair), Assay Code: RE1T, Evaluation Type: Evaluation A (Pre-1980)) “no conclusion”; under setting [2], “inactive; negative”; under setting [3], “active; positive”.
On to `CCCCN(CCCC)N=O`, for which the mutagenic call runs as follows: (Species/Cell Type: Chinese hamster lung (V79) cells, Assay Type: Forward gene mutation at the HPRT or ouabain locus, Assay Code: V79+, Evaluation Type: Evaluation A (Pre-1980)) “active; positive”; (Species/Cell Type: Chinese hamster ovary (CHO) cells, Assay Type: Forward gene mutation at the HPRT locus, Assay Code: CHO+*, Activation: With metabolic activation, Evaluation Type: Evaluation B (Post-1980)) “active; positive”; (Species/Cell Type: Human diploid fibroblasts, Assay Type: Unscheduled DNA synthesis (UDS) in vitro, DNA effects, Assay Code: UDHT, Evaluation Type: Evaluation A (Pre-1980)) “no conclusion”; (Species/Cell Type: Mammalian polychromatic erythrocytes, Assay Type: Micronucleus test, chromosome aberrations, Assay Code: MNTT, Evaluation Type: Evaluation A (Pre-1980)) “no conclusion”; (Species/Cell Type: Mouse, Sex: Male, Assay Type: Sperm morphology, Assay Code: SPI-, Evaluation Type: Evaluation A (Pre-1980)) “inactive; negative”; (Species/Cell Type: Nonhuman, Assay Type: Chromosome aberrations in vitro, Assay Code: CY&-, Evaluation Type: Evaluation A (Pre-1980)) “inactive; negative”. Besides, the mutagenic call (Species/Cell Type: Nonhuman, Assay Type: Sister-chromatid exchange (SCE) in vitro, Assay Code: SC2+D, Dose Response: With dose response, Evaluation Type: Evaluation B (Post-1980)) was “active; positive”; the mutagenic call (Species/Cell Type: Nonhuman, Assay Type: Sister-chromatid exchange (SCE) in vitro, Assay Code: SC2T, Evaluation Type: Evaluation A (Pre-1980)) is “no conclusion”; the mutagenic call (Species/Cell Type: Nonhuman, Assay Type: Sister-chromatid exchange (SCE) in vivo, Assay Code: SC3+, Evaluation Type: Evaluation B (Post-1980)) is “active; positive”; the mutagenic call under setting [3] was “active; positive”. Also, the call (Species/Cell Type: Nonhuman, Assay Type: In vivo carcinogenicity studies, Assay Code: CCG+, Evaluation Type: Evaluation A (Pre-1980)) is “active; positive”.
Regarding `CCN(CC)CCOc1ccc2c(c1)C(=O)c1cc(OCCN(CC)CC)ccc1-2`, the mutagenic call (Species/Cell Type: Mouse (C3H/10T1/2) cells, Assay Type: Cell transformation, Assay Code: CTH-, Evaluation Type: Evaluation A (Pre-1980)) was “inactive; negative”; the mutagenic call (Species/Cell Type: Nonhuman, Assay Type: Sister-chromatid exchange (SCE) in vitro, Assay Code: SC2-, Evaluation Type: Evaluation A (Pre-1980)) was “inactive; negative”; the mutagenic call under setting [4] is “no conclusion”; the mutagenic call (Species/Cell Type: Salmonella typhimurium (one or more of the five standard strains: TA98, TA100, TA1535, TA1537, and TA1538), Assay Type: Histidine reverse gene mutation, Ames assay, Assay Code: SAL+, Evaluation Type: Evaluation A (Pre-1980)) is “active; positive”.
Regarding `Cc1cc2nc3ccc(=[N+](C)C)cc-3sc2cc1N`, the mutagenic call (Species/Cell Type: Bacillus subtilis (H17 vs M45T), Assay Type: Rec-assay, spot test, DNA effects (bacterial DNA repair), Assay Code: REXT, Evaluation Type: Evaluation A (Pre-1980)) is on record as “no conclusion” and the mutagenic call (Species/Cell Type: Saccharomyces cerevisiae, Assay Type: Mitotic recombination or gene conversion, Assay Code: YECT, Evaluation Type: Evaluation A (Pre-1980)) is given as “no conclusion”.
Consider `COC1OC[C@@H](C(C)=O)[C@H]1C` (stereo not given in full), for which the mutagenic call under setting [4] is given as “no conclusion”.

(Values after PubChem BioAssay AID1259408 (Genetic Toxicology Data Bank (GENE-TOX), 2018).)
